# Values quoted from earlier work in US20260174718A1, “MODULATORS OF mTORC1 ACTIVITY AND USES THEREOF” (Navitor Pharmaceuticals, Inc., priority 2022, published 2026).
# Test system: mice
# Conditions: ketamine 2.5 mg/kg, intraperitoneally
structure (smiles),measurement,value
CNC1(c2ccccc2Cl)CCCCC1=O (stereo not shown) [ketamine],effect of ketamine challenge alone in the forced swim test,ineffective
